Source: patent US9868695B2 (priority 2014, dated 2018)
pEC50, pIC50: −log10 of the molar value. Values after ≈ are worked out from the molar mass of the structure shown. Like-named read-outs stand apart in the source and are kept apart here.

Assays:
[1] = system: Ehrlich solid tumor; test: In vivo activity in Ehrlich solid tumor model; set-up: species or system swiss mice; settings: for % Tumor Growth Inhibition: day 13 vs saline control; for Mortality: dead/group size
Method: Ehrlich ascites carcinoma (EAC) cells were collected from the peritoneal cavity of the swiss mice (animal house of IIIM registered eith CPCSEA; registration no. 67/99/CPCSEA) weighing 18-23 gm, harbouring 8-10 days old ascitic tumor. 1×10^7 EAC cells were injected intramuscularly in the right thigh of 38 swiss male mice selected for the experiment on day 0. The next day, animals were randomized and divided into five groups. Four treatment groups contained 7 animals each and one control group contained 10 animals. Treatment was given as follows:
Group I: 1 (0.75 mg/kg, i/p) from day 1-9.
Group II: 1g (1 mg/kg, i/p) from day 1-9.
The third treatment group was treated with 5-fluorouracil (22 mg/kg, i/p) from day 1-9 and it served as positive control. The control group was similarly administered normal saline (0.2 ml, i/p) from day 1-9. On day 9 & 13, tumor bearing thigh of each animal was shaved and longest and shortest diameters of the tumor were measured with the help of vernier caliper. Tumor weight of each animal was calculated using the following formula.
The percent tumor growth inhibition was calculated on day 13 by comparing the average values of treated groups with that of control group. Tumor growth in saline treated control animals was taken to be 100%.

[2] = system: P-gp; test: P-gp induction assay, rhodamine123 (Rh123) cell exclusion method in LS-180 cells; settings: for % intracellular accumulation of Rh123 in LS180 cells: compound 100 nM, decrease indicates P-gp induction; for % intracellular accumulation of Rh123 in LS180 cells / pEC50: 48 h; for pEC50: read-out: EC50, induction of P-gp, P-gp overexpressing LS-180 cells
Method: All synthesized compounds were screened for their ability to induce P-gp by using rhodamine123 (Rh123) cell exclusion method. In this method, the P-gp function was evaluated in terms of rhodamine 123 (Rh123) accumulation and efflux. Briefly, the protocol used is as follows: Colorectal LS-180 cells (ECACC type, purchased from Sigma, Cat. no. 87021202, cell passage no. 52) were seeded at a density of 2×10^4 per well of 96 well plate and were allowed to grow for next 24 h. Cells were further incubated with the test compounds, and were diluted to a final concentration of 100 nM and rifampicin (standard) to a final concentration of 10 μM in complete media for 48 h. The final concentration of DMSO was kept at 0.1%. Drugs were removed and cells were incubated with HANKS buffer for 40 minutes before further incubation with HANKS buffer (containing 10 μM of Rh123 as a P-gp substrate) for 90 minutes. At the end of Rh123 treatment cells were washed four times with cold PBS followed by cell lysis for 1 h by using 200 μl of lysis buffer (0.1% Triton X-100 and 0.2 N NaOH). A total of 100 μl of lysate was used for reading fluorescence of Rh123 at 485 nm/529 nm. Samples were normalized by dividing fluorescence of each sample with total protein present in the lysate. For EC50 determination, different concentrations of compound were used to treat LS180 cells for 48 h. EC50 was determined by plotting fluorescence of Rh123 against concentration of compound.

[3] = system: microtubules in HCT-116 cells; test: Effect of compounds on microtubules, confocal microscopy; format: cell-based, Human; settings: 100 nM, 24 h, anti-α-tubulin staining, compared to control
Method: For detection of tubulins, HCT-116 cells (1×10^5 cells/well) were seeded on to 18 mm square cover slips in six well plates in complete medium. […] After the treatment period, cells were fixed in 4% paraformaldehyde for 10 min at room temperature and permeabilized using 0.5% Triton-X in PBS for 5 min. The cells were blocked with 10% goat serum for 20 min at room temperature. Microtubules were detected with a monoclonal α-tubulin antibody (Sigma, Catalogue number: T9026) diluted 1:100 in 0.1% Triton X-100 in PBS for 1 h at room temperature and Alexa Fluor 488 conjugated secondary antibody (Invitrogen) diluted 1:500 in PBS for 1 h at room temperature. Cells were then washed three times in PBS and stained with 4′,6-diamidino-2-phenylindole (DAPI 1 μg/ml in PBS). The cover slips were mounted over glass slides and cells were imaged by a laser scanning confocal microscope (Olympus Fluoview FV1000). The promising candidates identified through P-gp screening and antiproliferative screening were further studied for tubulin polymerization inhibition activity.

[4] = Thermodynamic equilibrium solubility; format: physicochemical; settings: 25 °C, thermodynamic from solid, 25±1° C.
Method: The compounds were first dissolved in methanol to prepare stock solutions (100 and 1000 μg/mL). Different concentrations of stock solutions were pipetted into the 96-well plates and the solvent was evaporated to ensure that solid drug was present in the beginning of the experiment. Thereafter, 200 μl of the dissolution medium was added to the wells and 96-well plate was shaken horizontally at 300 rpm (Eppendorf Thermoblock Adapter, North America) for 4 h at room temperature (25±1° C.). The plates were kept overnight for equilibration of drug in medium. Later, the plates were centrifuged at 3000 rpm for 15 min (Jouan centrifuge BR4i). Supernatant (50 μl) was pipetted into UV 96-well plates (Corning® 96 Well Clear Flat Bottom UV-Transparent Microplate) for analyses with plate reader (SpectraMax Plus384) at λmax of 350 nm. The analyses were performed in triplicate for each compound. The solubility curve of concentration (μg/mL) vs absorbance was plotted to find out saturation point and the corresponding concentration was noted.

[5] = system: HCT-116; test: Antiproliferative activity, MTT assay, HCT-116; format: cell-based, Human
Method: (§1) Human colon cancer cell lines HCT-116 (NCI, passage no. 5) and Colo-205 116 (NCI, passage no. 3) were procured from National Cancer Institute, USA. HCT-116 and Colo-205 cells were grown in McCoy's 5A and RPMI growth medium respectively containing 10% FCS, 100 U penicillin and […] per mL medium. Cells were grown in CO2 incubator (Thermocon Electron Corporation, Houston, Tex.) at 37° C. with 95% humidity and 5% CO2 gas environment. Cells treated with tested materials were dissolved in DMSO while the untreated control cultures received only the vehicle (DMSO<0.2%). Cells were seeded in 96 well plates and exposed to tested compounds at various concentrations for 48 h time interval. MTT dye (2.5 mg/ml in PBS) was added 4 hrs priors to experiment termination. The plates were then centrifuged at 1500 rpm for 15 min and the supernatant was discarded, and MTT formazan crystals were dissolved in 150 μl of DMSO. The OD measured at 570 nm with reference wavelength of 620 nm.
(§2) The percentages of cell viability and growth inhibition were calculated using formulas: […]

[6] = system: Colo-205; test: Antiproliferative activity, MTT assay, Colo-205; format: cell-based; settings: Homo sapiens, 48 h
Method: as §1, §2

[7] = day 13, i/p day 1-9, 1 0.75 mg/kg, 1g 1 mg/kg, 5-fluorouracil 22 mg/kg
[8] = i/p day 1-9, 1 0.75 mg/kg, 1g 1 mg/kg, 5-fluorouracil 22 mg/kg
[9] = aqueous buffer, phosphate buffer saline, read-out: Solubility, PBS
[10] = fassgf or other biorelevant, simulated intestinal fluid, read-out: Solubility, SIF
[11] = simulated gastric fluid, read-out: Solubility, SGF
[12] = water, read-out: Solubility, Water

Structure (SMILES): O=c1[nH]cc(F)c(=O)[nH]1 [5-Fluorouracil]
- Day 13 Avg. tumor weights [1, 7]: 668.2 mg
- % Tumor Growth Inhibition [1, 8]: 54.78%
- Mortality [1, 8]: 0/7

Structure (SMILES): COc1cc2c(c(OC)c1OC)-c1ccc(OC)c(=O)cc1[C@@H](NC(C)=O)CC2 [Compound 1, Colchicine]
- % intracellular accumulation of Rh123 in LS180 cells ([2]; control = 100%): 62%
- pEC50 [2]: 7.84
- disruption of microtubule assembly [3]: remarkable disruption and loss of microtubules
- solubility [4, 9]: 800 µg/mL (≈ 2000 µM)
- solubility [4, 10]: 800 µg/mL (≈ 2000 µM)
- solubility [4, 11]: 200 µg/mL (≈ 501 µM)
- solubility [4, 12]: > 1500 µg/mL
- mortality, animals in the group of 7 animals ([1]; colchicine 0.75 mg/kg, i/p): 2 animals
- mortality, animals in the group of 7 animals ([1]; colchicine 1 mg/kg, i/p, text and footnote): 5 animals
- Avg. body weights (g) of animal on days 1 ([1]; day 1, i/p day 1-9, 1 0.75 mg/kg, 1g 1 mg/kg, 5-fluorouracil 22 mg/kg): 22.28 g
- Avg. body weights (g) of animal on days 5 ([1]; day 5, i/p day 1-9, 1 0.75 mg/kg, 1g 1 mg/kg, 5-fluorouracil 22 mg/kg): 21.42 g
- Avg. body weights (g) of animal on days 9 ([1]; day 9, i/p day 1-9, 1 0.75 mg/kg, 1g 1 mg/kg, 5-fluorouracil 22 mg/kg): 20.2 g
- Day 13 Avg. body weights [1, 7]: 19.25 g
- Day 13 Avg. tumor weights [1, 7]: 705.0 mg
- % Tumor Growth Inhibition [1, 8]: 52.29%
- Mortality ([1]; colchicine 1 mg/kg, i/p): 5/7
- Mortality [1, 8]: 2/7

Structure (SMILES): COc1cc2c(c(OC)c1OC)-c1ccc(N3CCNCC3)c(=O)cc1[C@@H](NC(C)=O)CC2 [Compound 1a, N-[(7S)-1,2,3-Trimethoxy-9-oxo-10-(piperazin-1-yl)-5,6,7,9-tetrahydrobenzo[a]heptalen-7-yl]acetamide]
- % intracellular accumulation of Rh123 in LS180 cells ([2]; control = 100%): 90%
- pIC50 ([5]; Homo sapiens, HCT-116, 48 h): < 5.00
- pIC50 [6]: 5.10
- melting point: 158 to 161 °C

Structure (SMILES): COc1cc2c(c(OC)c1OC)-c1ccc(N3CCC(N)CC3)c(=O)cc1[C@@H](NC(C)=O)CC2 [Compound 1b, N-[(7S)-1,2,3-Trimethoxy-9-oxo-10-(4-amino-piperidin-1-yl)-5,6,7,9-tetrahydrobenzo[a]heptalen-7-yl]acetamide]
- % intracellular accumulation of Rh123 in LS180 cells ([2]; control = 100%): 90%
- pIC50 ([5]; Homo sapiens, HCT-116, 48 h): 5.00
- pIC50 [6]: 5.30

Structure (SMILES): COc1cc2c(c(OC)c1OC)-c1ccc(N3CCN(C(=O)OC(C)(C)C)CC3)c(=O)cc1C(NC(C)=O)CC2 [Compound 1c, N-[(7S)-1,2,3-Trimethoxy-9-oxo-10-(N-boc-piperazin-1-yl)-5,6,7,9-tetrahydrobenzo[a]heptalen-7-yl]acetamide]
- pIC50 ([5]; Homo sapiens, HCT-116, 48 h): 5.40
- pIC50 [6]: 5.52

Structure (SMILES): COc1cc2c(c(OC)c1OC)-c1ccc(N3CCC(c4ccccc4)CC3)c(=O)cc1C(NC(C)=O)CC2 [Compound 1d, N-[(7S)-1,2,3-Timethoxy-9-oxo-10-(4-phenyl-piperidin-1-yl)-5,6,7,9-tetrahydrobenzo[a]heptalen-7-yl]acetamide]
- % intracellular accumulation of Rh123 in LS180 cells ([2]; control = 100%): 90%
- pEC50 [2]: 7.53
- pIC50 ([5]; 48 h): 6.00
- pIC50 ([5]; Homo sapiens, HCT-116, 48 h): ≥ 6.00
- pIC50 [6]: 6.10
- solubility [4, 9]: 80 µg/mL (≈ 151 µM)
- solubility [4, 10]: 20 µg/mL (≈ 37.8 µM)
- solubility [4, 11]: > 1500 µg/mL
- solubility [4, 12]: 80 µg/mL (≈ 151 µM)

Structure (SMILES): COc1cc2c(c(OC)c1OC)-c1ccc(N3CCC[C@@H]3CO)c(=O)cc1C(NC(C)=O)CC2 (stereo partly drawn) [Compound 1e, N-[(7S)-1,2,3-Trimethoxy-9-oxo-10-(L-prolinol-1-yl)-5,6,7,9-tetrahydrobenzo[a]heptalen-7-yl]acetamide]
- pIC50 ([5]; Homo sapiens, HCT-116, 48 h): 5.00
- pIC50 [6]: 5.10

Structure (SMILES): COc1cc2c(c(OC)c1OC)-c1ccc(N3CCc4c([nH]c5ccccc45)C3)c(=O)cc1[C@@H](NC(C)=O)CC2 [Compound 1f, N-[(7S)-1,2,3-Trimethoxy-9-oxo-10-(2,3,4,9-tetrahydro-1H-pyrido[3,4-b]indole-2-yl)-5,6,7,9-tetrahydrobenzo[a]heptalen-7-yl]acetamide]
- % intracellular accumulation of Rh123 in LS180 cells ([2]; control = 100%): 90%
- pIC50 ([5]; Homo sapiens, HCT-116, 48 h): 5.52
- pIC50 [6]: 6.10

Structure (SMILES): CO[C@H]1/C=C/O[C@@]2(C)Oc3c(C)c(O)c4c(O)c(c(/C=N/N5CCN(C)CC5)c(O)c4c3C2=O)NC(=O)/C(C)=C\C=C\[C@H](C)[C@H](O)[C@@H](C)[C@@H](O)[C@@H](C)[C@H](OC(C)=O)[C@@H]1C [rifampicin, reference compound]
- % intracellular accumulation of Rh123 ([2]; rifampicin 10 μM, positive control, control = 100%): 69%
